Results: patent US8071569B2, “Oxidized heparin fractions and their use in inhibiting angiogenesis” (priority 2002, dated 2011)

How the values were obtained:
Colon tumor = experiment: CAM tumor implant model, colon tumor; format: in vivo, chick; conditions: 0.01 mg single dose over 7 days, initial implant 45 ± 5 mg, n = 8
Procedure: Ten million tumor cells were placed on the surface of each CAM and were cultured for one week. The resulting tumors were excised and cut into 50 mg fragments. These fragments were placed on additional CAMs and treated topically or systemically by intravenous injection the following day with the test agents. […] Each treatment group incorporated at least ten tumors per experiment. Tumors were then excised from the egg and tumor weights were determined for each tumor.

[1] = system: Human umbilical vein endothelial cells (HUVEC); experiment: Inhibition of FGF2-stimulated endothelial cell tube formation on Matrigel; format: cell-based; conditions: FGF2 alone 100 ng/ml, overnight
Procedure: Differentiation by endothelial cells was examined using a method developed by Grant et al. (Grant et al., In Vitro Cell Dev. Biol., 27A:327-336 (1991), which is hereby incorporated by reference in its entirety). Matrigel® matrix, phenol-red free (commercially available from Becton Dickinson, Bedford, Mass.) was thawed overnight at 4° C. Using cold pipette tips, 3.0 mg/well of Matrigel® matrix was placed in a cold twenty-four-multiwell plate (Falcon). Matrigel® matrix was allowed to polymerize during incubation at 37° C. for 30 minutes.
Human umbilical vein endothelial cells (HUVEC) were maintained at 37° C. with 5% CO2 and 95% humidity in endothelial cell growth medium with 2% fetal bovine serum (EGM). […]
Subsequently, the medium was aspirated and cells were fixed and stained using a modified HEMA-3 stain kit. Digital images of micro-titer well sections were collected using a DKC5000 3-CCD color video camera system (Toshiba America, New York, N.Y.) and analyzed using Image-Pro Plus software (Media Cybernetics, Silver Spring, Md.). The area and major axis length of stained cells having a tubular morphology was measured on the Matrigel® matrix surface (Becton Dickinson, Bedford, Pa.) counted from 5 images/well.

[2] = system: chick chorioallantoic membrane (CAM); experiment: FGF2-induced neovascularization on the chick chorioallantoic membrane (CAM); format: in vivo; conditions: FGF2 alone (filter disk, 1 μg/mL)
Procedure: In vivo neovascularization was examined by the method previously described by Auerbach et al. (Auerbach et al., J. Dev. Biol., 41:391-394 (1974), which is hereby incorporated by reference in its entirety). Ten-day old embryos were purchased from Spafas, Inc. (Preston, Conn.) and were incubated at 37° C. with 55% relative humidity. In the dark with the help of a candling lamp, a small hole was punctured in the shell concealing the air sac with a hypodermic needle. A second hole was punctured in the shell on the broadside of the egg directly over an avascular portion of the embryonic membrane, as observed during candling. A false air sac was created beneath the second hole by the application of negative pressure to the first hole, which caused the chorioallantoic membrane (CAM) to separate from the shell. […]
CAM tissue directly beneath FGF2-saturated filter disk was resected from embryos treated 48 hours prior with test compound or control. […] Digital images of CAM sections adjacent to filters were collected using a 3-CCD color video camera system (Toshiba America, New York, N.Y.) and analyzed using Image-Pro Plus software (Media Cybernetics, Silver Spring, Md.). Table 4 contains the number of vessel branch points contained in a circular region equal to the area of a filter disk counted for each section.

Substance | Mean tumor weight (mg) ± SEM (Colon tumor) [mg] | Cell Tube Formation (area, mm^2) [1] [mm^2] | Cell Tube Formation (length, mm) [1] [mm] | Average # of Branch Points [2]
r-TFPI: r-tissue factor pathway inhibitor | 38 ± 8 |  |  | 
FGF2: recombinant human fibroblast growth factor basic, angiogenic stimulus |  | 2.50 ± 0.28 | 79.83 ± 8.66 | 264 + 18
